From US20230320995A1, “IONIZABLE CATIONIC LIPIDS AND LIPID NANOPARTICLES” (CAPSTAN THERAPEUTICS, INC., priority 2022, published 2023)
Read-outs that look alike come from different tables or passages of the source.

What was measured:
[1] = physical-chemical properties of CD5-targeted tLNP encapsulating mCherry mRNA; format: physicochemical; conditions: for Hydrodynamic diameter: anti-CD5 tLNP: ionizable lipid/DSPC/cholesterol/DMG-PEG 2000/DSPE-PEG2000-Maleimide 50:10:38.5:1.4:0.1; for Hydrodynamic diameter / PDI (polydispersity index): DLS; for PDI (polydispersity index) / Encapsulation Efficiency: anti-CD5 tLNP; for Encapsulation Efficiency: RiboGreen assay
Description: CleanCap® mCherry 5-methoxyuridine (5moU) mRNA (L-7203) was purchased from TriLink. mRNA was encapsulated in LNP using a self-assembly process in which an aqueous solution of mRNA at pH=3.5 is rapidly mixed with a solution of lipids dissolved in ethanol, then followed by stepwise phosphate and Tris buffer dilution and TFF purification. LNP composition in this study was: ionizable cationic lipid/distearoylphosphatidylcholine/cholesterol/DMG-PEG 2000/distearoylphosphatidyl ethanolamine(DSPE)-PEG2000-Maleimide (50:10:38.5:1.4:0.1 mol/mol) and were encapsulated at an N/P ratio (the ratio of positively-chargeable […] amine (N=nitrogen) groups to negatively-charged nucleic acid phosphate (P) groups) at 6. The hydrodynamic diameter of the nanoparticles was measured by dynamic light scattering using a Zetasizer Nano ZS (Malvern Instruments Ltd., Malvern, UK) instrument.
Next, an anti-CD5 mAb was conjugated to the above LNP to generate tLNP. Purified rat anti-mouse CD5 antibody, clone 53-7.3 (BioLegend), was coupled to LNP via N-succinimidyl S-acetylthioacetate (SATA)-maleimide conjugation chemistry. Briefly, LNPs with DSPE-PEG(2000)-maleimide incorporated were formulated and stored at 4° C. on the day of conjugation. The antibody was modified with SATA (Sigma-Aldrich) to introduce sulfhydryl groups at accessible lysine residues allowing conjugation to maleimide. SATA was deprotected using 0.5 M hydroxylamine followed by removal of the unreacted components by G-25 Sephadex Quick Spin Protein columns (Roche Applied Science, Indianapolis, IN). The reactive sulfhydryl group on the antibody was then conjugated to maleimide moieties on the LNPs using thioether conjugation chemistry. Purification was performed using Sepharose CL-4B gel filtration columns (Sigma-Aldrich). tLNPs (LNPs conjugated with a targeting antibody) were frozen at −80° C. Others have conjugated antibody to free functionalized PEG-lipid and then incorporated the conjugated lipid into pre-formed LNP.
mRNA content was determined using a Quant-iT™ RiboGreen RNA assay kit (Invitrogen™). Encapsulation efficiency was calculated by determining the unencapsulated mRNA content by measuring the fluorescence intensity (Fi) upon the addition of RiboGreen reagent to the LNP and comparing this value to the total fluorescence intensity (Ft) of the RNA content that is obtained upon lysis of the LNPs by 1% Triton X-100, where % encapsulation=(Ft−Fi)/Ft x 100).
The particle size (hydrodynamic diameter) and polydispersity index of the targeted lipid nanoparticles were determined using dynamic light scattering (DLS) on a Malvern Zetasizer Nano ZS (Malvern Instruments, Worcestershire, UK). Size measurement was carried out in pH 7.4 Tris buffer at 25° C. in relevant disposable capillary cells. A non-invasive back scatter system (NIBS) with a scattering angle of 173° was used for size measurements.

[2] = apparent pKa of ionizable lipid in lipid nanoparticle, TNS assay; format: physicochemical; conditions: for ΔpKa: difference of calculated and measured pKa; for pKa: TNS assay
Method: c Log D and c-pKa were calculated as noted above. The measured pKa of a lipid was determined as formulated in a lipid nanoparticle using the TNS assay as described in the following Example.
The apparent pKa of ionizable lipid in the lipid nanoparticle was determined using 6-(p-toluidino)-2-naphthalenesulfonic acid sodium salt (TNS salt, Toronto Research Chemicals, Toronto, ON, Canada). Lipid nanoparticles were diluted in 1×Dulbecco's PBS to a concentration of 1 mM total lipids. TNS salt was prepared as a 1 mg/mL stock solution in DMSO and then further diluted using distilled water to a working solution of 60 μg/mL ([…]). Diluted lipid nanoparticle samples were further diluted to 90 μM total lipids in 165 μL of buffered solution containing 10 mM HEPES, 10 mM MES, 10 mM ammonium acetate, 130 mM NaCl, and final TNS concentration of 1.33 μg/mL (4 μM) with the pH ranging from 3.5 to 12.2. Following pipette mixing and incubation at room temperature in the dark for 15 min, fluorescence intensity was measured at room temperature in a BioTek Synergy H1 plate reader using excitation and emission wavelengths of 321 and 445 nm, respectively. The fluorescence signal was blank subtracted and plotted as a function of the pH, then analyzed using a nonlinear (Boltzmann) regression analysis with the apparent pKa determined as the pH giving rise to half maximal fluorescence intensity as calculated by the Henderson-Hasselbalch equation.

[3] = physical-chemical properties of LNP encapsulating mCherry mRNA; format: physicochemical; conditions: for Encapapsulation Efficiency / PDI (polydispersity index): LNP 50:10:38.5:1.5, mCherry mRNA; for Encapapsulation Efficiency / Hydrodynamic diameter: N/P 6; for PDI (polydispersity index) / Hydrodynamic diameter: DLS; for Hydrodynamic diameter: LNP: ionizable lipid/DSPC/cholesterol/DMG-PEG2000 50:10:38.5:1.5, mCherry mRNA, pH 7.4 Tris, 25° C.
Description: The mRNA was encapsulated in LNP using a self-assembly process in which an aqueous solution of mRNA at pH=3.5 is rapidly mixed with a solution of lipids dissolved in ethanol, then followed by stepwise phosphate and Tris buffer dilution and tangential flow filtration (TFF) purification. LNP composition in this study was: ionizable cationic lipid/distearoylphosphatidylcholine/cholesterol/DMG-PEG2000 (50:10:38.5:1.5 mol/mol) and were encapsulated at an N/P ratio (the ratio of positively-chargeable lipid amine (N=nitrogen) groups to negatively-charged nucleic acid phosphate (P) groups) at 6. LNPs were frozen at −80° C. […] The diameter of the nanoparticles was measured by dynamic light scattering using a Zetasizer Nano ZS (Malvern Instruments Ltd., Malvern, UK) instrument. Size measurement was carried out in pH 7.4 Tris buffer at 25° C. in relevant disposable capillary cells. A non-invasive back scatter system (NIBS) with a scattering angle of 173° was used for size measurements.

[4] = ex vivo stability in mouse plasma; format: in vitro ADME; conditions: CD-1 mouse plasma, 37° C., 1 μM lipid
Method: To determine the stability of the disclosed lipids in mouse plasma lipid stock solution was prepared by dissolution of the lipid in isopropanol at the concentration of 5 mg/mL. A requisite volume of the lipid-isopropanol solution was then diluted to 100 μM concentration at a total volume of 10.0 mL with 50:50 (v/v) ethanol/water. Ten microliters of this 100 μM solution was spiked into 10.0 mL of mouse plasma (BioIVT, Lot MSE394920, CD-1 mouse, anticoagulant: sodium heparin, not filtered) that was prewarmed to 37° C. and stirred at 50 rpm with a magnetic stir bar. The starting concentration of lipids in plasma was thus 1 μM. Aliquots (50 μL) were taken after 0, 15, 30, 45, 60, and 120 minutes, transferred to microcentrifuge tubes and quenched with three volumes (150 μL) of ice cold acetonitrile/methanol (4:1). Positive control incubations utilized the same plasma, with Benfluorex (1 μM) as the substrate with Labetalol (1.0 μgl) as the in situ disappearance. The quenched solutions were vortexed, centrifuged for 5 minutes at 13,000 rpm, and supernatant (100 μL) transferred to a 96-well plate and diluted with water (200 μL, 0.1% FA). After filtration through a 0.45 μm 96-well filtering plate, the filtrates were analyzed by LC-MS (Waters AQUITY I-class UPLC system, ThermoScientific Vanquish UPLC system consisting of a binary pump, autosampler, and column compartment, Waters Xevo G2-XS QT of mass spectrometer; Phenomenex F5, 1.7 μm, 2.1×50 mm column). Mobile phase A was 0.1% formic acid in water, and mobile phase B was 0.1% formic acid in acetonitrile. The flow rate was 0.6 mL/min. Elution gradient was as follows: time, 0.5 min: 20% B; 0.5-2 min: 20-100% B; 2-4.8 min: 100% B; 4.8-5.45 min: 100-20% B. Mass spectrometry was in positive scanning mode from 600-1100 m/z. The peak of the molecular ion of the lipids was integrated in extracted ion chromatography (XIC) using Xcalibur software (Thermo Fisher). The relative peak area compared to T=0, after normalization by the peak area of the internal standard, was used as the percentage of the lipid remaining at each time point. T1/2 values were calculated using the first-order decay model.

[5] = ionizable lipid in tLNP, read-out: Measured pKa
[6] = measured, lipid formulated in a lipid nanoparticle, read-out: pKa

Row | SMILES | Hydrodynamic diameter [1] | PDI (polydispersity index) [1] | Encapsulation Efficiency [1] | ΔpKa [2] | pKa [2, 5] | pKa [2, 6] | Encapapsulation Efficiency [3] | PDI (polydispersity index) [3] | Hydrodynamic diameter [3] | ex vivo Mouse Plasm Stability % Remaining at 2 Hours [4]
1 | CCCCCCCCC(=O)OCC(COC(=O)CCCCCCCC)CC(=O)OCCN(CCOC(=O)CC(COC(=O)CCCCCCCC)COC(=O)CCCCCCCC)C(=O)OCCCN(C)C [Compound A-12] | 98 nm | 0.07 | 92% | 1.91 | 7.35 | 7.35 | 91% | 0.04 | 104 nm | 85%
2 | CCCCCCCCC(=O)OCC(COC(=O)CCCCCCCC)CC(=O)OCCN(CCOC(=O)CC(COC(=O)CCCCCCCC)COC(=O)CCCCCCCC)C(=O)NCCN(C)C [Compound A-13] | 100 nm | 0.10 | 99% | 0.80 | 7.51 | 7.51 | 99% |  | 101 nm | 64%
3 | CCCCCCCCC(=O)OCC(COC(=O)CCCCCCCC)CC(=O)OCCN(CCOC(=O)CC(COC(=O)CCCCCCCC)COC(=O)CCCCCCCC)C(=O)N(C)CCN(C)C [Compound A-14] | 100 nm | 0.05 | 95% | 0.91 | 7.46 | 7.46 | 91% | 0.03 | 127 nm | 61%
4 | CCCCCCCCC(=O)OCC(COC(=O)CCCCCCCC)CC(=O)OCCN(CCOC(=O)CC(COC(=O)CCCCCCCC)COC(=O)CCCCCCCC)C(=O)N(C)CCCN(C)C [Compound A-15] | 136 nm | 0.15 | 98% | 1.18 | 8.37 | 8.37 | 99% | 0.07 | 97 nm | 69%
